Measurements published in EPA's CvTdb concentration-time database.

Assays:
Experiment in all cases: concentration in plasma after dosing
Mouse [1] = details: 0.25 h; dosed: 2-Hydroxy-4-methoxybenzophenone; 250 mg/kg; oral; Female; B6C3F1
Mouse [2] = details: 2 h; dosed: 2-Hydroxy-4-methoxybenzophenone; 250 mg/kg; oral; Female; B6C3F1
Rat [3] = test system: Rat
Rat [4] = details: dosed: 2-Hydroxy-4-methoxybenzophenone, 100 mg/kg, oral, Male, F344
Mouse [5] = details: dosed: 2-Hydroxy-4-methoxybenzophenone, 100 mg/kg, oral, Male, B6C3F1
Rat [6] = details: dosed: 2-Hydroxy-4-methoxybenzophenone, 8 mg/kg, iv, Male, F344

COc1ccc(C(=O)c2ccccc2)c(O)c1 [2-Hydroxy-4-methoxybenzophenone]
Details | concentration in plasma [ng/mL]
Mouse [1] | 88.3
Mouse [2] | 832

concentration in plasma [ng/mL], Rat [3], dosed: 2-Hydroxy-4-methoxybenzophenone, F344
Details | 0.25 h | 2 h | 2.5 min | 3 h | 4 h | 6 h | 10 h | 10 min
8 mg/kg, iv, Female | 1560 | 75.6 | – | – | 36.8 | – | – | 2540
8 mg/kg, iv, Male | 1860 | 99.2 | – | – | – | – | 70.1 | 72.5
100 mg/kg, oral, Female | 86.5 | – | – | 14.5 | 10.6 | – | – | 113
100 mg/kg, oral, Male | 171 | – | – | 17.3 | 42.4 | – | – | 140
250 mg/kg, oral, Female | 331 | – | – | 71.9 | 87.1 | – | – | 32.7
250 mg/kg, oral, Male | 82.8 | – | – | 54.6 | 65.2 | – | – | 19.4
500 mg/kg, oral, Female | 231 | – | 7.13 | – | 452 | – | 49.7 | 113
500 mg/kg, oral, Male | 614 | – | – | – | 450 | 225 | 65.2 | 116

Details | concentration in plasma [ng/mL]
Mouse [5], 0.25 h | 64.6
Mouse [5], 2 h | 21.1
Mouse [5], 2.5 min | 26.8
Mouse [5], 3 h | 20
Mouse [5], 10 min | 39.6
Rat [4], 0.25 h | 88.9
Rat [4], 4 h | 26.1
Rat [6], 10 h | 8.52
Rat [6], 10 min | 3770

O=N[O-] [Nitrite]
concentration in plasma [ng/mL], Rat [3], dosed: Nitrite
Details | Female | Male
0.5 h, 20 mg/kg, iv, F344 | – | 2600
0.5 h, 40 mg/kg, oral, F344 | 6000 | 1900
0.5 h, 80 mg/kg, oral, F344 | 11300 | –
0.75 h, 20 mg/kg, iv, F344 | – | 2400
1 h, 20 mg/kg, iv, F344 | – | 2000
1 h, 40 mg/kg, oral, F344 | 2900 | 3400
1 h, 80 mg/kg, oral, F344 | 9700 | –
2 h, 40 mg/kg, oral, F344 | 2600 | –
2 h, 80 mg/kg, oral, F344 | 7500 | –
2 min, 20 mg/kg, iv, F344 | – | 14800
2 min, 40 mg/kg, oral, F344 | 3100 | –
2 min, 40 mg/kg, oral, Harlan Sprague-Dawley | 2200 | –
2 min, 80 mg/kg, oral, F344 | 8200 | –
4 h, 80 mg/kg, oral, F344 | 2400 | –
5 min, 20 mg/kg, iv, F344 | – | 3100
5 min, 40 mg/kg, oral, F344 | 4800 | –
5 min, 40 mg/kg, oral, Harlan Sprague-Dawley | 1700 | –
5 min, 80 mg/kg, oral, F344 | 12400 | –
6 h, 80 mg/kg, oral, F344 | 2000 | –
8 h, 80 mg/kg, oral, F344 | 1700 | –
10 h, 80 mg/kg, oral, F344 | 1700 | –
10 min, 20 mg/kg, iv, F344 | – | 4300
10 min, 40 mg/kg, oral, F344 | 5900 | 3400
10 min, 40 mg/kg, oral, Harlan Sprague-Dawley | 2500 | –
10 min, 80 mg/kg, oral, F344 | 7500 | –
20 min, 20 mg/kg, iv, F344 | – | 900
